# Paper PMC12226733, “Evolution of iGluR ligand specificity, polyamine regulation, and ion selectivity inferred from a placozoan epsilon receptor” (Communications Biology, 2025)
# Positions count from the first letter of the chain named. Values joined by “and” are separate entries in the source; they are usually repeats but may differ in a detail not shown here. Equal entries are not always repeated. Where two headings read alike, the source gives them in different places.
# Columns and labels:
# GluE1αA S642N = target: T1, GluE1αA S642N (Trichoplax adhaerens, UniProt B3SAW0, S167N)
# T1 sequence (B3SAW0 1-341 S167N): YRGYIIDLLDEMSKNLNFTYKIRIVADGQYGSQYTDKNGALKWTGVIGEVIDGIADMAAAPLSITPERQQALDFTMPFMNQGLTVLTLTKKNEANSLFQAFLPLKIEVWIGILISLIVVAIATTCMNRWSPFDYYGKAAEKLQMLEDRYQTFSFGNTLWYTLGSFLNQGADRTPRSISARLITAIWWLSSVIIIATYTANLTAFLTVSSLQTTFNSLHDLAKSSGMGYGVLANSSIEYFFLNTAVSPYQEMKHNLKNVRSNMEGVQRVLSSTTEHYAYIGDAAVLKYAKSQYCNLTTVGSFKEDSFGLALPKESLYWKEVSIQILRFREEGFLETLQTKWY
# From the text: (§1) To further elucidate the nature of internal polyamine block in GluE1αA, we performed outside-out membrane patch clamp experiments in wildtype and mutant channels. […] Current-voltage (I-V) relationships were converted to conductance-voltage (G-V) plots and fit with a single permeant blocker model to estimate both the dissociation constant for Spm at 0 mV (Kd(0mV)) and the voltage dependency of block, as previously described[46],[47].
# (§2) HEK-293T/17 cells (ATCC) were maintained in MEM supplemented with GlutaMAX and 10% fetal bovine serum (FBS) at 37 °C and 5% CO2. […] Transient transfections were carried out 48 h post-plating using the calcium phosphate precipitation method. After 6–8 hours, cells were washed twice with PBS and maintained in fresh medium. Cells transfected with mammalian GluA2 cDNA (plasmid vector described above) were returned to an incubator at 37 °C for 24–48 hours and cells transfected with Epsilon GluE1αA were incubated at 28 °C for 48–72 hours. In cells co-transfected with TARP-γ2, 30 μM NBQX was included in the medium to minimize AMPAR/auxiliary-induced cytotoxicity. All constructs were co-transfected with a plasmid encoding enhanced green fluorescent protein (eGFP) to identify transfected cells. Electrophysiology responses were recorded from outside-out patches excised from transfected cells. Recording pipettes were composed of borosilicate glass (3 to 6 megaohm, King Precision Glass) coated with dental wax to reduce electrical noise. All recordings were performed using Axopatch 200B amplifier (Molecular Devices, LLC). Current records were filtered at 5 or 10 kHz and sampled at 25–50 kHz. Series resistance (3 to 12 megaohms) was compensated by 95%. Recordings were performed at a range of holding potentials from −100 mV to 100 mV to study polyamine block. Data was acquired using pClamp9 software (Molecular Devices, LLC). All experiments were performed at room temperature. All chemicals were purchased from Sigma-Aldrich, unless otherwise indicated. External solution contained (in mM): 150 NaCl, 5 HEPES, 0.1 CaCl2, 0.1 MgCl, and […], pH 7.3–7.4. […] The osmotic pressure of all solutions was adjusted to 295 to 300 mOsm with sucrose. […] Stocks were thawed on the day of the experiment and used to prepared agonist-containing external solutions. Raw data for all electrophysiology experiments are provided in Supplementary Data 3. Current-voltage (I-V) relationships were fit using Origin 7 (OriginLab) using a ninth order polynomial function to estimate the reversal potential (Vrev).
# (§3) Agonist-evoked membrane conductance (G) was calculated using the following equation: G=I/(V−Vrev)
# (§4) Conductance-voltage (G-V) relationships were fit using Origin 7 (OriginLab) with the single permeant blocker model as done previously[46]: G=Gmax/1+[Spm]/Kd Where Gmax is the maximal conductance, [Spm] is the internal Spm concentration, and Kd is the dissociation constant.
# (§5) Kd is defined as: Kd=koff+kperm/kon=sumofexitrates/bindingrate
# (§6) And redefined as: Kd=g*exp(V/h)+L*exp(V/k) Where h and k are voltage dependencies of g and L, respectively, and at 0 mV: g=koff/konandL=kperm/kon
# GluE1αA wt = GluE1αA wt (Trichoplax adhaerens, UniProt B3SAW0); conditions: for Normalized current (Inorm) GluE1αA wild type: single recordings and AVG
# Chain of GluE1αA wt (B3SAW0 1-341): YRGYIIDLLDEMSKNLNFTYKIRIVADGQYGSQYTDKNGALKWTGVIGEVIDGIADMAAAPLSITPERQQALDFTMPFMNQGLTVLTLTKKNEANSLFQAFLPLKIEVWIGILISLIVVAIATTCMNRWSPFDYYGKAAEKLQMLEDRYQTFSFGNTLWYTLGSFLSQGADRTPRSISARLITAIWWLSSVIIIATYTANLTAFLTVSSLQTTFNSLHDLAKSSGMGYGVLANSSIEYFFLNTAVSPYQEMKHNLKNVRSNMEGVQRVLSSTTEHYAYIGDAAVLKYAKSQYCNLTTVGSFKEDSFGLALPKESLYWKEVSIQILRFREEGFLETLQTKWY
# From the text: as §1, §2, §3, §4, §5, §6
# GluE1αA S642Q = target: T2, GluE1αA S642Q (Trichoplax adhaerens, UniProt B3SAW0, S167Q)
# T2 sequence (B3SAW0 1-341 S167Q): T1 sequence (B3SAW0 1-341 S167N) with N167Q
# From the text: as §1, §2, §3, §4, §5, §6
smiles,measurement,setting,value
NCCCNCCCCNCCCN [spermine],Normalized conductance (Gnorm),"GluE1αA S642N; 0 mV, single recordings c1-c7, AVG c8",0.27 and 0.16 and 0.22
same,Normalized conductance (Gnorm),"GluE1αA S642N; -80 mV, single recordings c1-c7, AVG c8",0.79
same,Normalized current (Inorm),"GluE1αA S642N; -100 mV, single recordings c1-c7, AVG c8",-1.00
same,"h, voltage dependency of block onset",GluE1αA S642N; GluE1αA S642N,−26.4 ± 1.3 mV
same,"k, voltage dependency of block relief",GluE1αA S642N; GluE1αA S642N,34.9 ± 3.7 mV
same,Normalized current (Inorm) GluE1αA wild type,GluE1αA wt; 50 mV,0.16 and 0.13 and 0.0847
same,Normalized current (Inorm) GluE1αA wild type,GluE1αA wt; -100 mV,-1.00
same,"h, voltage dependency of block onset",GluE1αA wt; GluE1αA wt,−18.5 ± 0.6 mV
same,"k, voltage dependency of block relief",GluE1αA wt; GluE1αA wt,36.5 ± 4.7 mV
same,Normalized current (Inorm),"GluE1αA S642Q; -100 mV, single recordings c1-c10, AVG c11",-1.00
same,"h, voltage dependency of block onset",GluE1αA S642Q; GluE1αA S642Q,−15.3 ± 0.7 mV
same,"k, voltage dependency of block relief",GluE1αA S642Q; GluE1αA S642Q,28.3 ± 2.1 mV
